Patent US10391095B2, “DNA-PK inhibitors” (Vertex Pharmaceuticals Incorporated, priority 2012, dated 2019)

Target: DNA-PK (Homo sapiens, UniProt P78527)
Assay: DNA-PK inhibition assay (radiometric, 33P-ATP)
Format: biochemical
Conditions: 100 μM ATP, competitive tight-binding fit
Procedure, shortened: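 33P transfer from 100 µM ATP to a DNA-PK peptide (0.8 mg/mL) is measured after 45 min, using about 6 nM enzyme activated by 10 µg/mL sheared dsDNA (HEPES pH 7.5, MgCl2, DTT). Filter-bound counts fitted to a competitive tight-binding inhibition model give Ki.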

| SMILES | Ki [nM] |
| --- | --- |
| Cc1ccc(-c2cc(NCC(C)c3cncnc3OC3CCC3)ncn2)cn1 (stereo not shown) [Compound 299] | < 30 |
| CNC(=O)c1ccnc2c([C@H](C)CNc3cc(N4CNC(=O)C4)ncn3)cccc12 [Compound 797] | < 30 |
| CNC(=O)c1ccnc2c([C@H](C)CNc3cc(-c4cncc(COC)c4)ncn3)cccc12 [Compound 840] | < 30 |
| CNC(=O)c1c(F)cnc2c([C@H](C)CNc3cc(-c4csc(-n5cccn5)n4)ncn3)cccc12 [Compound 782] | < 30 |
| COc1sccc1C(C)CNc1cc(-c2ccc(N3CCN(C)CC3)nc2)ncn1 (stereo not shown) [Compound 265] | < 30 |
| C[C@H](CNc1cc(-c2cnc3c(ccn3C3COC3)c2)ncn1)c1ccnc2c1OCCO2 [Compound 536] | < 30 |
| CNCCN(C)c1ccc(-c2cc(NC[C@@H](C)c3ccc(C(=O)NC)cc3OC)ncn2)cn1 [Compound 368] | < 30 |
| COc1ccccc1CCNc1cc(-c2cnc3c(ccn3C(C)C)c2)ncn1 [Compound 37] | < 30 |
| CNC(=O)c1ccnc2c([C@H](C)CNc3cc(-c4ccc(C5CC5)nc4)ncn3)ccc(F)c12 [Compound 852] | < 30 |
| CNC(=O)c1ccnc2c([C@H](C)CNc3cc(-c4cnc(N5CCCC(O)C5)nc4)ncn3)cccc12 (stereo partly shown) [Compound 728] | < 30 |
| CNC(=O)c1ccnc2c([C@H](C)CNc3cc(-c4ccc5c(c4)CN(C(C)=O)CC5)ncn3)cccc12 [Compound 804] | < 30 |
| CNC(=O)c1ccnc2c([C@H](C)CNc3cc(-c4cnc(C)c(F)c4)ncn3)ccc(F)c12 [Compound 974] | < 30 |
| CNC(=O)c1ccnc2c([C@H](C)CNc3cc(-c4cnc(C(C)(C)OC)nc4)ncn3)cccc12 [Compound 928] | < 30 |
| CNC(=O)c1ccnc2c([C@H](C)CNc3cc(-c4cnc(OC5CCCN(C(=O)OC(C)(C)C)C5)nc4)ncn3)cccc12 (stereo partly shown) [Compound 747] | < 30 |
| CNC(=O)c1ccnc2c([C@H](C)CNc3cc(-c4cnc(OC)c(F)c4)ncn3)cccc12 [Compound 881] | < 30 |
| CNC(=O)c1ccc(C(C)CNc2cc(-c3ccc4c(cnn4C4COC4)c3C)ncn2)c(OC)c1 (stereo not shown) [Compound 278] | < 30 |
| CNC(=O)c1ccnc2c([C@H](C)CNc3cc(-c4cnc(OC(C)C)nc4)ncn3)ccc(F)c12 [Compound 983] | < 30 |
| Cc1ccc(-c2cc(NCC(C)c3ccccc3OC3CCCC3)ncn2)cn1 (stereo not shown) [Compound 241] | < 30 |

| SMILES | Ki [nM] |
| --- | --- |
| CNC(=O)c1ccnc2c([C@H](C)CNc3cc(-c4cc(OC)nc(OC)c4)ncn3)cccc12 [Compound 889] | < 30 |
| CNC(=O)c1ccc([C@H](C)CNc2cc(-c3cnc4c(ccn4CCO)c3)ncn2)c(OC)c1 [Compound 269] | < 30 |
| CNC(=O)c1c(F)cnc2c([C@H](C)CNc3cc(-c4cnc5c(c4)OCCO5)ncn3)cccc12 [Compound 937] | < 30 |
| CNC(=O)c1ccnc2c([C@H](C)CNc3cc(-c4cnc(C(C)C)nc4)ncn3)ccc(F)c12 [Compound 854] | < 30 |
| CNC(=O)c1ccnc2c([C@H](C)CNc3cc(-c4ccc(C#N)cc4)ncn3)cccc12 [Compound 683] | < 30 |
| CNC(=O)c1ccnc2c([C@H](C)CNc3cc(N4CCn5ccnc5C4)ncn3)cccc12 [Compound 741] | < 30 |
| CNC(=O)c1ccnc2c([C@H](C)CNc3cc(-c4cnc(OC(C)C)c(C)c4)ncn3)cccc12 [Compound 947] | < 30 |
| CNC(=O)c1ccc([C@H](C)CNc2cc(-c3ccc(CN)cc3)ncn2)c(OC)c1 [Compound 351] | < 30 |
| CCCNc1ccc(-c2cc(NC[C@@H](C)c3ccc(C(=O)NC)cc3OC)ncn2)cn1 [Compound 361] | < 30 |
| CNC(=O)c1ccnc2c([C@H](C)CNc3cc(-c4ccc(OC)nc4)ncn3)ccc(F)c12 [Compound 908] | < 30 |
| COc1ccccc1CCNc1cc(-c2cnc3c(ccn3CC3CCOCC3)c2)ncn1 [Compound 41] | < 30 |
| COC(=O)c1ccc(OC)c(C(C)CNc2cc(-c3ccc(C)nc3)ncn2)c1 (stereo not shown) [Compound 250] | < 30 |
| CNC(=O)c1ccc([C@H](C)CNc2cc(-c3ccc(N(C)C(C)C4CC4)nc3)ncn2)c(OC)c1 (stereo partly shown) [Compound 341] | < 30 |
| COc1cc(C(=O)NC2CC2)ccc1C(C)CNc1cc(-c2ccc(C)nc2)ncn1 (stereo not shown) [Compound 158] | < 30 |
| CNC(=O)c1ccc(C(C)CNc2cc(-c3cnc4[nH]ncc4c3)ncn2)c(OC)c1 (stereo not shown) [Compound 167] | < 30 |
| CCNC(=O)Cn1ncc2cc(-c3cc(NCC(C)c4ccc(C(=O)NC)cc4OC)ncn3)cnc21 (stereo not shown) [Compound 238] | < 30 |
| CNC(=O)c1c(F)cnc2c([C@H](C)CNc3cc(-c4ccc(C5CCC5)nc4)ncn3)cccc12 [Compound 855] | < 30 |
| Cc1ccc2cc(-c3cc(NC[C@@H](C)c4ccnc5c4OCCO5)ncn3)ccc2n1 [Compound 555] | < 30 |

The remaining lines, values ahead:

| Ki [nM] | SMILES |
| --- | --- |
| < 30 | CNCCNc1ccc(-c2cc(NC[C@@H](C)c3cccc4c(C(=O)NC)ccnc34)ncn2)cn1 [Compound 584] |
| < 30 | CNC(=O)c1c(F)cnc2c([C@H](C)CNc3cc(-c4cnc(CO)c(OC)c4)ncn3)cccc12 [Compound 920] |
| < 30 | COc1cscc1C(C)CNc1cc(-c2ccc(N3CCN(C)CC3)nc2)ncn1 (stereo not shown) [Compound 146] |
| < 30 | CNC(=O)c1ccnc2c([C@H](C)CNc3cc(-c4cnn(C)c4)ncn3)cccc12 [Compound 661] |
| < 30 | Cc1ccc(-c2cc(NCC(C)c3ccc(F)cc3OC3CC3)ncn2)cn1 (stereo not shown) [Compound 270] |
| < 30 | CC(CNc1cc(-c2cnc3c(cnn3CCO)c2)ncn1)c1ccc(F)cc1OC1CC1 (stereo not shown) [Compound 275] |
| < 30 | CCn1ccc2cc(-c3cc(NCCc4ccccc4OC)ncn3)cnc21 [Compound 35] |
| < 30 | CNC(=O)c1ccc([C@H](C)CNc2cc(-c3ccc(N4CCCC4)nc3)ncn2)c(OC)c1 [Compound 363] |
| < 30 | CNC(=O)c1c(F)cnc2c([C@H](C)CNc3cc(-c4cnc(C)nc4)ncn3)cccc12 [Compound 636] |
| < 30 | CNC(=O)c1ccnc2c([C@H](C)CNc3cc(-c4ccc(OCCN5CCCC5)cc4)ncn3)cccc12 [Compound 727] |
| < 30 | CNC(=O)c1ccnc2c([C@H](C)CNc3cc(-c4ccnc(N5CCCC5=O)c4)ncn3)cccc12 [Compound 893] |
| < 30 | CNC(=O)c1c(F)cnc2c([C@H](C)CNc3cc(-c4cncc(C#N)c4)ncn3)cccc12 [Compound 963] |
| < 30 | Cc1ncc(-c2cc(NC[C@@H](C)c3cccc4c(C(F)F)c(F)cnc34)ncn2)cn1 [Compound 813] |
| < 30 | CNC(=O)c1ccc([C@H](C)CNc2cc(-c3ccc4c(cnn4CC4CC4)c3)ncn2)c(OC)c1 [Compound 294] |
| < 30 | Cc1ccc(-c2cc(NCC(C)c3cnccc3OC3CC3)ncn2)cn1 (stereo not shown) [Compound 165] |
| < 30 | CNC(=O)c1ccnc2c([C@H](C)CNc3cc(-c4cnc(F)c(C)c4)ncn3)cccc12 [Compound 951] |
| < 30 | CNC(=O)c1ccc(C(C)CNc2cc(-c3cnc4c(cnn4C(C)(C)C(=O)O)c3)ncn2)c(OC)c1 (stereo not shown) [Compound 284] |
| < 30 | CCOc1ccc(-c2cc(NC[C@@H](C)c3ccc(F)c4c(C(=O)NC)ccnc34)ncn2)cn1 [Compound 934] |
| < 30 | CNC(=O)c1ccnc2c([C@H](C)CNc3cc(-c4cnc(C)c(F)c4)ncn3)cccc12 [Compound 972] |
| < 30 | C=C(CNc1cc(-c2ccc(C)nc2)ncn1)c1cnc(N)nc1OC [Compound 453] |

| Ki [nM] | SMILES |
| --- | --- |
| < 30 | COc1sccc1C(C)CNc1cc(-c2cnc3c(cnn3CCO)c2)ncn1 (stereo not shown) [Compound 259] |
| < 30 | COc1ccccc1[C@H](C)CNc1cc(-c2ccc(NC3CCN(C4CC4)CC3)nc2)ncn1 [Compound 242] |
| < 30 | CNC(=O)c1ccc([C@H](C)CNc2cc(-c3ccc(C)nc3)ncn2)c(OC)c1 [Compound 175] |
| < 30 | CNC(=O)c1ccc([C@H](C)CNc2cc(-c3ccc(N4CCC4)nc3)ncn2)c(OC)c1 [Compound 395] |
| < 30 | CNC(=O)c1ccnc2c([C@H](C)CNc3cc(-c4ccc(N(C)CCOCC5CC5)nc4)ncn3)cccc12 [Compound 714] |
| < 30 | CNC(=O)c1ccc(C(C)CNc2cc(-c3ccc(OC)nc3)ncn2)c(OC)c1 (stereo not shown) [Compound 320] |
| < 30 | CNC(=O)c1c(F)cnc2c([C@H](C)CNc3cc(-c4ccc(C5(N)CC5)nc4)ncn3)cccc12 [Compound 941] |
| < 30 | CC(CNc1cc(-c2cnc3c(cnn3C3CCN(C)CC3)c2)ncn1)c1ccccc1OC1CC1 (stereo not shown) [Compound 145] |
| < 30 | COc1cc(CO)ccc1C(C)CNc1cc(-c2ccc(N3CCN(C(C)=O)CC3)nc2)ncn1 (stereo not shown) [Compound 115] |
| < 30 | CNC(=O)c1ccc([C@H](C)CNc2cc(-c3ccc4c(c3)CC(=O)N4)ncn2)c(OC)c1 [Compound 310] |
| < 30 | CNCCCNc1ccc(-c2cc(NC[C@@H](C)c3ccc(C(=O)NC)cc3OC)ncn2)cn1 [Compound 356] |
| < 30 | Cc1ccc(-c2cc(NCC(C)c3cccc4c3OCCO4)ncn2)cn1 (stereo not shown) [Compound 447] |
| < 30 | COc1ccsc1C(C)CNc1cc(-c2cnc3c(cnn3CCO)c2)ncn1 (stereo not shown) [Compound 233] |
| < 30 | COc1ccccc1[C@H](C)CNc1cc(-c2ccc(N3CCCC3)nc2)ncn1 [Compound 84] |
| < 30 | CNC(=O)c1ccnc2c([C@H](C)CNc3cc(-c4ccc(C(F)(F)F)nc4)ncn3)cccc12 [Compound 649] |
| < 30 | Cc1ccc(-c2cc(NCC(C)c3ccc(F)c4cccnc34)ncn2)cn1 (stereo not shown) [Compound 303] |
| < 30 | C[C@H](CNc1cc(-c2ccc(N)nc2)ncn1)c1ccnc2c1OCC2 [Compound 594] |
| < 30 | CNC(=O)c1ccnc2c([C@H](C)CNc3cc(-c4ccc(C(C)=O)cc4)ncn3)cccc12 [Compound 590] |
| < 30 | CNC(=O)c1c(-n2ccc(C)n2)cnc2c([C@H](C)CNc3cc(-c4ccc(C)nc4)ncn3)cccc12 [Compound 740] |
| < 30 | CCOC(=O)C(C)(C)n1ncc2cc(-c3cc(NCC(C)c4ccc(C(=O)NC)cc4OC)ncn3)cnc21 (stereo not shown) [Compound 276] |
